Earlier results on 5 substances are cited in patent US9510613B2, “Panaxadiol-containing composition” (LION CORPORATION, priority 2011, dated 2016).

For the data set the following is noted: commercial component, Table 3.
Regarding Glycerin Monostearate Citrate, the HLB is given as 9.5. As to Sucrose Lauric Acid Ester, the HLB is given as 16. For the substance Sucrose Stearic Acid Ester, the HLB is listed as 16.

Turning to Sucrose Myristic Acid Ester, the HLB was 16.

Turning to Sucrose Palmitic Acid Ester, the HLB was 16.
